Results as given in ChEMBL document CHEMBL2010751, “Synthesis of a novel suppressor of beta-cell apoptosis via diversity-oriented synthesis” (ACS Med Chem Lett, 2011).
Active and inactive are the calls of the source. The calls are words filed in the database; no cut-off is given here.

Assays:
[1] = Inhibition of IL-1beta, IFN-gamma and TNF-alpha-induced apoptosis of rat INS-1E cells assessed as restoring cell viability after 48 hrs by luciferase based CellTiter-Glo assay; format: functional
[2] = Inhibition of IL-1beta, IFN-gamma and TNF-alpha-induced apoptosis of rat INS-1E cells assessed as maximum activity to restoring cell viability after 48 hrs by luciferase based CellTiter-Glo assay; format: functional
INS-1E [3] = experiment: Inhibition of IL-1beta, IFN-gamma and TNF-alpha-induced apoptosis of rat INS-1E cells assessed as decrease in nitrite production after 48 hrs by Griess assay; format: functional, cell-based
INS-1E [4] = experiment: Inhibition of IL-1beta, IFN-gamma and TNF-alpha-induced apoptosis of rat INS-1E cells assessed as restoration of mitochondrial membrane potential at 0.25 to 5 uM after 48 hrs by JC-1 staining analysis; format: functional, cell-based
INS-1E [5] = experiment: Inhibition of IL-1beta, IFN-gamma and TNF-alpha-induced apoptosis of rat INS-1E cells assessed as glucose-stimulated insulin secretion at 5 uM after 48 hrs by ELISA; format: functional, cell-based
INS-1E [6] = experiment: Inhibition of IL-1beta, IFN-gamma and TNF-alpha-induced apoptosis of rat INS-1E cells assessed as decrease in caspase-3 activity after 48 hrs by luminescence assay; format: functional, cell-based

## COc1ccc(S(=O)(=O)N(C)C[C@@H]2Oc3c(NC(=O)Nc4cccc5ccccc45)cccc3C(=O)N([C@@H](C)CO)C[C@H]2C)cc1C
[1]
  EC50: 3.5 µM
[2]
  Activity: 76%

## COc1cccc(S(=O)(=O)N(C)C[C@@H]2Oc3c(NC(=O)Nc4cccc5ccccc45)cccc3C(=O)N([C@@H](C)CO)C[C@H]2C)c1
[1]
  EC50: > 20 µM
[2]
  Activity: 0%

## COc1ccc(S(=O)(=O)N(C)C[C@@H]2Oc3c(NC(=O)NC4CCCc5ccccc54)cccc3C(=O)N([C@@H](C)CO)C[C@H]2C)cc1 (stereo partly drawn)
[1]
  EC50: > 20 µM
[2]
  Activity: 0%

## CC(C)N1C[C@@H](C)[C@H](CN(C)S(=O)(=O)c2ccc3c(c2)OCCO3)Oc2c(NC(=O)Nc3cccc4ccccc34)cccc2C1=O
[1]
  EC50: 2.79 µM
[2]
  Activity: 89%

## C[C@@H]1CN([C@@H](C)CO)C(=O)c2cccc(NC(=O)Nc3cccc4ccccc34)c2O[C@H]1CN(C)S(=O)(=O)c1ccc(Oc2ccccc2)cc1
[1]
  EC50: > 20 µM
[2]
  Activity: 0%

## C[C@@H]1CN([C@@H](C)CO)C(=O)c2cccc(NC(=O)Nc3cccc4ccccc34)c2O[C@H]1CN(C)S(=O)(=O)c1ccc2c(c1)OCCO2
INS-1E [3]
  inhibition: Dose-dependent effect
INS-1E [4]
  inhibition: Active
[1]
  EC50: 0.78 µM
INS-1E [5]
  inhibition: Active
[2]
  Activity: 99%
INS-1E [6]
  inhibition: Dose-dependent effect

## COc1ccc(S(=O)(=O)N(C)C[C@@H]2Oc3c(NC(=O)Nc4ccc5occc5c4)cccc3C(=O)N([C@@H](C)CO)C[C@H]2C)cc1
[1]
  EC50: > 20 µM
[2]
  Activity: 0%

## COc1ccccc1S(=O)(=O)N(C)C[C@@H]1Oc2c(NC(=O)Nc3cccc4ccccc34)cccc2C(=O)N([C@@H](C)CO)C[C@H]1C
[1]
  EC50: > 20 µM
[2]
  Activity: 0%

## COc1ccc(S(=O)(=O)N(C)C[C@@H]2Oc3c(NC(=O)Nc4cccc5c4CCCC5)cccc3C(=O)N([C@@H](C)CO)C[C@H]2C)cc1
[1]
  EC50: > 20 µM
[2]
  Activity: 0%

## COc1ccc(S(=O)(=O)N(C)C[C@@H]2Oc3c(NC(=O)Nc4cccc5ccccc45)cccc3C(=O)N([C@@H](C)CO)C[C@H]2C)cc1
[1]
  EC50: 4.89 µM
[2]
  Activity: 62%

## C[C@@H]1CN([C@@H](C)CO)C(=O)c2cccc(NC(=O)Nc3cccc(Cl)c3Cl)c2O[C@H]1CN(C)S(=O)(=O)c1ccc2c(c1)OCCO2
[1]
  EC50: > 20 µM
[2]
  Activity: 0%

## COc1ccc(S(=O)(=O)N(C)C[C@@H]2Oc3c(NC(=O)Nc4cccc5ccccc45)cccc3C(=O)N(C(C)C)C[C@H]2C)cc1
[1]
  EC50: 3.06 µM
[2]
  Activity: 76%
